Reference: patent US20120142584A1, “NOVEL TRANSPORTER CONSTRUCTS AND TRANSPORTER CARGO CONJUGATE MOLECULES” (priority 2008, published 2012)

Experiment: digestion of TAT derived transporter constructs in 10% and 50% human serum at 37° C.
Conditions: 10% and 50% human serum at 37° C. until complete degradation
Procedure: The table shown in FIG. 2 illustrates the amino acid sequences of these TAT derived transporter constructs with respect to their molecular weight (Mw) and pl-values (see FIG. 2). • The digestion was carried out in 10% and 50% human serum at 37° C. until complete degradation of these TAT derived transporters construct.

SMILES: N=C(N)NCCC[C@H](NC(=O)[C@H](CCCNC(=N)N)NC(=O)[C@H](CCCNC(=N)N)NC(=O)[C@H](CCC(N)=O)NC(=O)[C@H](CCCNC(=N)N)NC(=O)[C@H](CCCNC(=N)N)NC(=O)[C@H](CCCCN)NC(=O)[C@H](CCCCN)NC(=O)[C@@H](N)CCCNC(=N)N)C(=O)O [L-TAT]
- degradation in human serum: degraded too early
